Source: US20170202939A1, “PERSONALIZED CANCER VACCINES AND METHODS THEREFOR” (Washington University, priority 2014, published 2017)
No end group written: not given here.

What was measured:
[1] = tested on: neoantigen-specific T cells; test: cytokine production by neoantigen-specific T cells (MILLIPLEX / IFN-γ ELISA); type: cell-based, human; details: upon antigen stimulation, supernatants at 24 h
Procedure: For analysis of cytokines secreted by T cells upon SCT activation, cultures were activated 14 d after SCT or AT-SCT stimulation, T cells were restimulated with SCT at 1:1 ratio in RPMI 1640 supplemented with 5% pooled human sera (RPMI-5), supernatants were collected 24 h after activation and characterized using a MILLIPLEX® cytokine kit (Millipore, Billerica, Mass.), per the manufacturer's instructions.
(§1) For functional characterization, neoantigen-specific T cell lines were generated using autologous mDC and antigen loaded artificial antigen presenting cells at a ratio of 1:1 as previously described (Carreno, B. M., et al., J. Immunol., 188, 5839-5849, 2012). […] For production of cytokines, neoantigen-specific T cells were restimulated using artificial antigen presenting cells in the presence or absence of peptide, supernatants collected at 24 h and cytokine produced determined using MILLIPLEX® MAP Human Cytokine Panel I (EMD Millipore).
Substantial evidence supports the hypothesis that Th2/Tc2 immune polarization correlates with worse disease outcome in patients with cancer (Fridman, W. H., et al., Nat. Rev. Cancer, 12, 298-306, 2012). […] Thus, we determined production of cytokines upon antigen stimulation as described above. […] Cytokine production was determined using a multi-plex bead assay. […]

[2] = tested on: peptide-pulsed T2 (HLA-A*02:01) cells; test: 4 h 51Cr-release assay with peptide titrations on T2 cells (peptide avidity, AAS vs WT recognition); type: cell-based, human; details: peptide presented on T2 cells
Procedure: ^51Cr release assays to measure specific lysis have been described previously (Carreno, B. M., et al., Immunol. Cell Biol., 87: 167-177, 2009; Linette, G. P. et al., Clin. Cancer Res. 11, 7692-7699, 2005). Melanoma cell lines DM6 (HLAA2+ gp100+) and A375 (HLA-A2+gp100−) were labeled with 25 μCi ^51Cr for 1 hour, washed, and tested as targets in a standard 4-hour assay. Effectors were generated using PBMCs collected after D3 and cultured for 12 days in the presence of peptide (40 μg/ml) and IL2 (50 U/ml every other day). Vaccine-induced antigen-specific T cells were characterized using HLAA*0201/peptide dextramers (Immudex). To determine the avidity (effective concentration at 50% maximal lysis) of vaccine-induced T cells for antigen, T2 cells were pulsed with titrated G209-2M or G280-9V peptide concentrations for 1 hour in serum-free media followed by 51Cr (25 μCi) labeling for 1 hour, washed twice, and tested using vaccine-induced gp100-specific T cells in a standard 4-hour assay.
as §1
To examine cross-reactivity, T2 cells were pulsed with MUT or WT peptide at the indicated concentrations, labeled with ^51CR-chromium and used as target in a cytotoxic assay. Vaccine-induced T cells were incubated with peptide-pulsed T2 cells and ^51Cr-Chromium release measured at 4 h. […]
FIG. 34 illustrates that neoantigen-specific T cells recognition of AAS (closed circles) and WT (open circles) peptides was determined in a standard 4 h ^51Cr-release assay using peptide titrations on T2 (HLAA*02:01) cells. […]

Sequence | cytokine phenotype of neoantigen-specific T cells (IFN-γ relative to IL-4, IL-5, IL-13) [1] | T cell discrimination between mutated (AAS) and wild-type peptide [2] | T cell discrimination between mutated (AAS) and wild-type peptide ([2]; listed as OR8B3) | T cell discrimination between mutated (AAS) and wild-type peptide ([2]; listed as OR8B3 T190I)
CLNEYHLFL | mixed phenotype |  |  | 
KLMNIQQKL | Tc1 phenotype | can discriminate between peptide sequence containing single an changes |  | 
QLSCISTYV |  |  | cannot discriminate between MUT and WT sequences | could not discriminate between AAS and wild-type (WT) peptide
